{
  "source": "paper PMC6979384",
  "about": "“Characterization of the plant homeodomain (PHD) reader family for their histone tail interactions” (Epigenetics & Chromatin, 2020)",
  "test_in_all_cases": "Histone peptide microarray",
  "assay_type_in_all_cases": "binding, human",
  "key": {"[1]": {"system": "MORC3 (CW)", "settings": "GST-tagged MORC3 (CW = CW-type Zn-finger), sheet Array Heatmap, each array performed twice, total n = 4", "in_short": "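Each reader, produced as a GST fusion and purified, was tested at 0.5 μM on synthetic histone peptides (293 in total) carrying single or combinatorial marks. Intensities averaged over four replicates.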"}, "[2]": {"system": "ING1", "settings": "GST-tagged ING1, sheet Array Heatmap, each array performed twice, total n = 4", "in_short": "(§1)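 Steps: express and purify GST-tagged PHD reader; incubate 0.5 μM protein on a peptide microarray (293 histone peptides, single or combined PTMs) following an optimized protocol; average signal across 4 replicates.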"}, "[3]": {"system": "PHF13", "settings": "GST-tagged PHF13, sheet Array Heatmap, each array performed twice, total n = 4", "in_short": "as §1"}, "[4]": {"system": "ING3", "settings": "GST-tagged ING3, sheet Array Heatmap, each array performed twice, total n = 4", "in_short": "as §1"}, "[5]": {"system": "KDM4C (TTP)", "settings": "GST-tagged KDM4C (TTP = Tandem Tudor domain + PHD), sheet Array Heatmap, each array performed twice, total n = 4", "in_short": "as §1"}, "[6]": {"system": "AIRE (PP)", "settings": "GST-tagged AIRE (PP), sheet Array Heatmap, each array performed twice, total n = 4", "in_short": "as §1"}, "[7]": {"system": "KDM5A (3)", "settings": "GST-tagged KDM5A (3), sheet Array Heatmap, each array performed twice, total n = 4", "in_short": "as §1"}, "[8]": {"system": "KDM7A", "settings": "GST-tagged KDM7A, sheet Array Heatmap, each array performed twice, total n = 4", "in_short": "as §1"}, "[9]": {"system": "TAF3", "settings": "GST-tagged TAF3, sheet Array Heatmap, each array performed twice, total n = 4", "in_short": "as §1"}, "[10]": {"system": "DIDO1", "settings": "GST-tagged DIDO1, sheet Array Heatmap, each array performed twice, total n = 4", "in_short": "as §1"}, "[11]": {"system": "CHD5 (PPCC)", "settings": "GST-tagged CHD5 (PPCC = Dual PHD + Dual Chromodomain), sheet Array Heatmap, each array performed twice, total n = 4", "in_short": "as §1"}, "[12]": {"system": "MLL5", "settings": "GST-tagged MLL5, sheet Array Heatmap, each array performed twice, total n = 4", "in_short": "as §1"}, "[13]": {"system": "SP140L", "settings": "GST-tagged SP140L, sheet Array Heatmap, each array performed twice, total n = 4", "in_short": "as §1"}, "[14]": {"system": "PHRF1 (RP)", "settings": "GST-tagged PHRF1 (RP), sheet Array Heatmap, each array performed twice, total n = 4", "in_short": "as §1"}, "[15]": {"system": "PHF21A", "settings": "GST-tagged PHF21A, sheet Array Heatmap, each array performed twice, total n = 4", "in_short": "as §1"}, "[16]": {"system": "TRIM66 (PB)", "settings": "GST-tagged TRIM66 (PB = PHD + Bromodomain), sheet Array Heatmap, each array performed twice, total n = 4", "in_short": "as §1"}, "[17]": {"system": "DPF2 (PPC2W2)", "settings": "GST-tagged DPF2 (PPC2W2 = Dual PHD + C2W2-type Zn-finger), sheet Array Heatmap, each array performed twice, total n = 4", "in_short": "as §1"}, "[18]": {"system": "BPTF (PB)", "settings": "GST-tagged BPTF (PB = PHD + Bromodomain), sheet Array Heatmap, each array performed twice, total n = 4", "in_short": "as §1"}, "[19]": {"system": "KDM5B (3)", "settings": "GST-tagged KDM5B (3), sheet Array Heatmap, each array performed twice, total n = 4", "in_short": "as §1"}, "[20]": {"system": "RAG2", "settings": "GST-tagged RAG2, sheet Array Heatmap, each array performed twice, total n = 4", "in_short": "as §1"}, "[21]": {"system": "ING4", "settings": "GST-tagged ING4, sheet Array Heatmap, each array performed twice, total n = 4", "in_short": "as §1"}, "[22]": {"system": "PHF23", "settings": "GST-tagged PHF23, sheet Array Heatmap, each array performed twice, total n = 4", "in_short": "as §1"}, "[23]": {"system": "PHF2", "settings": "GST-tagged PHF2, sheet Array Heatmap, each array performed twice, total n = 4", "in_short": "as §1"}, "[24]": {"system": "CHD4 (PPCC)", "settings": "for Array Heatmap signal (histone peptide microarray): GST-tagged CHD4 (PPCC = Dual PHD + Dual Chromodomain), sheet Array Heatmap, each array performed twice, total n = 4", "in_short": "as §1"}, "[25]": {"system": "PHF8", "settings": "GST-tagged PHF8, sheet Array Heatmap, each array performed twice, total n = 4", "in_short": "as §1"}, "[26]": {"system": "KDM5A (1)", "settings": "GST-tagged KDM5A (1), sheet Array Heatmap, each array performed twice, total n = 4", "in_short": "as §1"}},
  "data": [
    {"substance": "H3K9ac: H3 1-20 [Peptide H3K9ac]", "values": [
      {"measurement": "Array Heatmap signal (histone peptide microarray)", "setting": "[1]; listed as 2", "value": 0.5166},
      {"measurement": "Array Heatmap signal (histone peptide microarray)", "setting": "[1]; listed as 3", "value": 0.5177},
      {"measurement": "Array Heatmap signal (histone peptide microarray)", "setting": "[2]; listed as 2", "value": 0.5257},
      {"measurement": "Array Heatmap signal (histone peptide microarray)", "setting": "[2]; listed as 3", "value": 0.5645},
      {"measurement": "Array Heatmap signal (histone peptide microarray)", "setting": "[3]; listed as 2", "value": 0.5811},
      {"measurement": "Array Heatmap signal (histone peptide microarray)", "setting": "[3]; listed as 3", "value": 0.5738},
      {"measurement": "Array Heatmap signal (histone peptide microarray)", "setting": "[4]; listed as 2", "value": 0.4489},
      {"measurement": "Array Heatmap signal (histone peptide microarray)", "setting": "[4]; listed as 3", "value": 0.4338},
      {"measurement": "Array Heatmap signal (histone peptide microarray)", "setting": "[5]; listed as 2", "value": 0.4318},
      {"measurement": "Array Heatmap signal (histone peptide microarray)", "setting": "[5]; listed as 3", "value": 0.4332},
      {"measurement": "Array Heatmap signal (histone peptide microarray)", "setting": "[6]; listed as 2", "value": 0.4059},
      {"measurement": "Array Heatmap signal (histone peptide microarray)", "setting": "[6]; listed as 3", "value": 0.3893},
      {"measurement": "Array Heatmap signal (histone peptide microarray)", "setting": "[7]; listed as 2", "value": 0.6003},
      {"measurement": "Array Heatmap signal (histone peptide microarray)", "setting": "[7]; listed as 3", "value": 0.6283},
      {"measurement": "Array Heatmap signal (histone peptide microarray)", "setting": "[8]; listed as 2", "value": 0.303},
      {"measurement": "Array Heatmap signal (histone peptide microarray)", "setting": "[8]; listed as 3", "value": 0.3051},
      {"measurement": "Array Heatmap signal (histone peptide microarray)", "setting": "[9]; listed as 2", "value": 0.3565},
      {"measurement": "Array Heatmap signal (histone peptide microarray)", "setting": "[9]; listed as 3", "value": 0.3052},
      {"measurement": "Array Heatmap signal (histone peptide microarray)", "setting": "[10]; listed as 2", "value": 0.6642},
      {"measurement": "Array Heatmap signal (histone peptide microarray)", "setting": "[10]; listed as 3", "value": 0.7409},
      {"measurement": "Array Heatmap signal (histone peptide microarray)", "setting": "[11]; listed as 2", "value": 0.5875},
      {"measurement": "Array Heatmap signal (histone peptide microarray)", "setting": "[11]; listed as 3", "value": 0.5535},
      {"measurement": "Array Heatmap signal (histone peptide microarray)", "setting": "[12]; listed as 2", "value": 0.5361},
      {"measurement": "Array Heatmap signal (histone peptide microarray)", "setting": "[12]; listed as 3", "value": 0.5261},
      {"measurement": "Array Heatmap signal (histone peptide microarray)", "setting": "[13]; listed as 2", "value": 0.3674},
      {"measurement": "Array Heatmap signal (histone peptide microarray)", "setting": "[13]; listed as 3", "value": 0.3745},
      {"measurement": "Array Heatmap signal (histone peptide microarray)", "setting": "[14]; listed as 2", "value": 0.9096},
      {"measurement": "Array Heatmap signal (histone peptide microarray)", "setting": "[14]; listed as 3", "value": 0.8949},
      {"measurement": "Array Heatmap signal (histone peptide microarray)", "setting": "[15]; listed as 2", "value": 0.4621},
      {"measurement": "Array Heatmap signal (histone peptide microarray)", "setting": "[15]; listed as 3", "value": 0.47},
      {"measurement": "Array Heatmap signal (histone peptide microarray)", "setting": "[16]; listed as 2", "value": 0.8314},
      {"measurement": "Array Heatmap signal (histone peptide microarray)", "setting": "[16]; listed as 3", "value": 0.731},
      {"measurement": "Array Heatmap signal (histone peptide microarray)", "setting": "[17]; listed as 2", "value": 0.7428},
      {"measurement": "Array Heatmap signal (histone peptide microarray)", "setting": "[17]; listed as 3", "value": 0.7589},
      {"measurement": "Array Heatmap signal (histone peptide microarray)", "setting": "[18]; listed as 2", "value": 0.3339},
      {"measurement": "Array Heatmap signal (histone peptide microarray)", "setting": "[18]; listed as 3", "value": 0.3268},
      {"measurement": "Array Heatmap signal (histone peptide microarray)", "setting": "[19]; listed as 2", "value": 0.5795},
      {"measurement": "Array Heatmap signal (histone peptide microarray)", "setting": "[19]; listed as 3", "value": 0.5654},
      {"measurement": "Array Heatmap signal (histone peptide microarray)", "setting": "[20]; listed as 2", "value": 0.3184},
      {"measurement": "Array Heatmap signal (histone peptide microarray)", "setting": "[20]; listed as 3", "value": 0.2998},
      {"measurement": "Array Heatmap signal (histone peptide microarray)", "setting": "[21]; listed as 2", "value": 0.4346},
      {"measurement": "Array Heatmap signal (histone peptide microarray)", "setting": "[21]; listed as 3", "value": 0.4319},
      {"measurement": "Array Heatmap signal (histone peptide microarray)", "setting": "[22]; listed as 2", "value": 0.5351},
      {"measurement": "Array Heatmap signal (histone peptide microarray)", "setting": "[22]; listed as 3", "value": 0.5457},
      {"measurement": "Array Heatmap signal (histone peptide microarray)", "setting": "[23]; listed as 2", "value": 0.6188},
      {"measurement": "Array Heatmap signal (histone peptide microarray)", "setting": "[23]; listed as 3", "value": 0.5837},
      {"measurement": "Array Heatmap signal (histone peptide microarray)", "setting": "[24]; listed as 2", "value": 0.6247},
      {"measurement": "Array Heatmap signal (histone peptide microarray)", "setting": "[24]; listed as 3", "value": 0.6748},
      {"measurement": "relative binding", "setting": "[24]; peptide microarray, reader 0.5 μM, n = 4", "value": "increased binding"},
      {"measurement": "Array Heatmap signal (histone peptide microarray)", "setting": "[25]; listed as 2", "value": 0.3437},
      {"measurement": "Array Heatmap signal (histone peptide microarray)", "setting": "[25]; listed as 3", "value": 0.3517},
      {"measurement": "Array Heatmap signal (histone peptide microarray)", "setting": "[26]; listed as 2", "value": 0.4743},
      {"measurement": "Array Heatmap signal (histone peptide microarray)", "setting": "[26]; listed as 3", "value": 0.4479}
    ]}
  ]
}
